Measured values: US12624034B2, “Non-covalent modifiers of AKT1 and uses thereof” (Terremoto Biosciences, Inc., priority 2023, dated 2026)
Where two headings read alike, the source gives them in different places.

How the values were obtained:
[1] = tested on: LAPC4 prostate cancer cells, which express the AKT1 E17K allele; experiment: Antiproliferative effects in LAPC4 cells (CellTiter Glo, 72 h); assay type: cell-based; conditions: Homo sapiens, LAPC4, 72 h, read-out: LAPC4 proliferation IC50
Method: Antiproliferative Effects in LAPC4 Cells.
LAPC4 prostate cancer cells (Klein, K. A. et al. Nat Med 1997, 3, 402-408), which express the AKT1 E17K allele, were grown in IMDM media (Hyclone) supplemented with 12% FBS+1% P/S. To assess compound effects on growth, 1,000 cells/well were seeded in 384 well assay plates, incubated with compound dilutions dissolved in DMSO. After 72 h, intracellular ATP content was assessed with CellTiter Glo reagent (Promega) according to the manufacturer's instructions. IC50 values were calculated by fitting luminescence values to a log(inhibitor) vs. response Hill equation.

AKT1 E17K = target: T1, AKT1 E17K (Homo sapiens, UniProt P31749, E17K); experiment: Live cell AKT1 E17K target engagement by NanoBRET competitive probe displacement in HEK293 cells; assay type: binding; conditions: 2 h at 37° C.
T1 construct: expressed in transfected cells; host or cells: HEK293
Method: Determining live cell AKT1 E17K, AKT1 WT, and AKT2 target engagement by NanoBRET competitive probe displacement. Live cell target engagement assays were performed as described (Vasta, J. D. et al. Cell Chem Biol 2018, 25(11), 206-214). Briefly, HEK293 cells were transfected with plasmids encoding kinase-NanoLuciferase fusion proteins overnight. Cells were then treated with serial dilutions of compound and an ˜EC50 concentration of fluorescently-tagged ATP-competitive tracer (Promega). After incubation for 2 h at 37° C., luciferase substrate and extracellular luciferase inhibitor were added to all wells, and luminescent intensity at 460 nm and 600 nm were measured on a multimode plate-reader. The ratio of E600/E460 was calculated to give the tracer engagement signal (BRET). IC50 values were calculated by fitting BRET values to a log(inhibitor) vs. response Hill equation.

AKT2 = target: T2, AKT2 (Homo sapiens, UniProt P31751); experiment: Live cell AKT2 target engagement by NanoBRET competitive probe displacement in HEK293 cells; assay type: binding; conditions: 2 h at 37° C., read-out: AKT2 IC50
T2 construct: expressed in transfected cells; host or cells: HEK293

AKT1 WT = target: T3, AKT1 WT (Homo sapiens, UniProt P31749); experiment: Live cell AKT1 WT target engagement by NanoBRET competitive probe displacement in HEK293 cells; assay type: binding; conditions: 2 h at 37° C., read-out: AKT1 WT IC50
T3 construct: expressed in transfected cells; host or cells: HEK293

[2] = NanoBRET live cell target engagement, HEK293 cells
[3] = NanoBRET competitive probe displacement, live HEK293 cells

T1 sequence (P31749 whole entry E17K): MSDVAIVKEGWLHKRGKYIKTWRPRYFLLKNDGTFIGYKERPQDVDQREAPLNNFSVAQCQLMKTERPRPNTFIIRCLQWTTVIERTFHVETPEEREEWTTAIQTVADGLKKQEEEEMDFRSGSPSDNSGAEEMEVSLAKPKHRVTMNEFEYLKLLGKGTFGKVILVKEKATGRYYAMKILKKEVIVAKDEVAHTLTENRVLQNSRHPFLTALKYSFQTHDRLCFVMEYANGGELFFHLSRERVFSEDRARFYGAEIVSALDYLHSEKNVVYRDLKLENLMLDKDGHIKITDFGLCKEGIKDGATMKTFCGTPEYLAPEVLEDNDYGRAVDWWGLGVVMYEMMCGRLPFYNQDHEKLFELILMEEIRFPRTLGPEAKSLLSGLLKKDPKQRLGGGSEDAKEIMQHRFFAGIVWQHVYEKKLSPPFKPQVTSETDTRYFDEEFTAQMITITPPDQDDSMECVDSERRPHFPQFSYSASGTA
T3 sequence (P31749 whole entry): as the sequence (P31749 whole entry E17K) above, with K17E counted along it
T2 sequence (P31751 whole entry): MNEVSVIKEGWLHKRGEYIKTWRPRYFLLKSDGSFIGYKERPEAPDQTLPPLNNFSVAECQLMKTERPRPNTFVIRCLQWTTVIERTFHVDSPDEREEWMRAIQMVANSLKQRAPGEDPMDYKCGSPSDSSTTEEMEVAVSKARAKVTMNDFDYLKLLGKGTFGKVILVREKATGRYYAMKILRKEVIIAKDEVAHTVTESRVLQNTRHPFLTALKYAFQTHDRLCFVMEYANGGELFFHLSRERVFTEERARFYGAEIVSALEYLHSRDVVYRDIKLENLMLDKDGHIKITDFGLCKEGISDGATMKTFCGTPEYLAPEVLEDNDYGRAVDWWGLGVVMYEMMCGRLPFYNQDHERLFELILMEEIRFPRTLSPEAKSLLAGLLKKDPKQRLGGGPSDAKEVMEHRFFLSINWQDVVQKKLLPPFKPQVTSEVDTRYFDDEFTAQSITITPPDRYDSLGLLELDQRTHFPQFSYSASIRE

| SMILES | IC50 [1] | IC50 (AKT1 E17K; [2]) | IC50 (AKT2; [2]) | IC50 (AKT1 WT; [2]) | IC50 (AKT1 E17K; [3]) | IC50 (AKT2; [3]) | IC50 (AKT1 WT; [3]) |
| --- | --- | --- | --- | --- | --- | --- | --- |
| Nc1ncccc1-c1nc2ccc(-n3nccn3)nc2n1-c1ccc2c(c1)CC[C@@H]2NC(=O)c1cnc(C(F)F)cn1 [Compound 288] | 3680 nM | > 1000 nM | > 10000 nM | 112 nM |  |  |  |
| Nc1ncccc1-c1nc2ccc(-n3cccn3)nc2n1-c1ccc2c(c1)CC[C@@H]2NC(=O)c1cc(O)c(O)cc1F [Compound 351, N-[(1S)-5-[2-(2-aminopyridin-3-yl)-5-(pyrazol-1-yl)imidazo[4,5-b]pyridin-3-yl]-2,3-dihydro-1H-inden-1-yl]-2-fluoro-4,5-dihydroxybenzamide] | 1140 nM | 82.5 nM | 497 nM | 20.3 nM |  |  |  |
| CC(C)(C)c1cn([C@H]2CCc3cc(-n4c(-c5cccnc5N)nc5ccc(-n6cccn6)nc54)ccc32)nn1 [Compound 320] | 2250 nM | 472 nM | 2330 nM | 83.7 nM |  |  |  |
| Nc1ncccc1-c1nc2ccc(-n3cccn3)nc2n1-c1ccc2c(c1)CC[C@@H]2NC(=O)c1cnns1 [Compound 399] | 2730 nM |  |  |  | 177 nM | 656 nM | 15 nM |
| Nc1ncccc1-c1nc2ccc(-n3cccn3)nc2n1-c1ccc2c(c1)CC[C@@H]2NC(=O)c1ccc(C(F)F)nc1 [Compound 18, (S)—N-(5-(2-(2-aminopyridin-3-yl)-5-(1H-pyrazol-1-yl)-3H-imidazo[4,5-b]pyridin-3-yl)-2,3-dihydro-1H-inden-1-yl)-6-(difluoromethyl)nicotinamide] | 733 nM | 44.4 nM | 55.5 nM | 10.5 nM |  |  |  |
| Nc1ncccc1-c1nc2ccc(-n3ccc(OCCN4CCOCC4)n3)nc2n1-c1ccc2c(c1)CC[C@@H]2NC1CCN(C(=O)C2CC2)CC1 [Compound 505] | 4360 nM |  |  |  | 485 nM | 547 nM | 17.6 nM |
| CN1C(=O)CCC1CC(=O)N[C@H]1CCc2cc(-n3c(-c4cccnc4N)nc4ccc(-n5cccn5)nc43)ccc21 (mixture of isomers) [Compound 11, N—{(S)-5-[2-(2-amino-3-pyridyl)-5-(1-pyrazolyl)-3H-1,3,4-triazainden-3-yl]-1-indanyl}(1-methyl-5-oxo-2-pyrrolidinyl)acetamide] |  | > 1000 nM | > 10000 nM | > 1000 nM |  |  |  |
| Nc1ncccc1-c1nc2ccc(-n3cccn3)nc2n1-c1ccc2c(c1)CC(F)[C@@H]2NC1CCc2cnccc21 (single isomer, unassigned) [Compound 482] | 827 nM |  |  |  | 140 nM | 194 nM | 5.39 nM |
| Nc1ncccc1-c1nc2ccc(-n3cccn3)nc2n1-c1ccc2c(c1)CC[C@@H]2NC(=O)c1cc[nH]c(=O)c1 [Compound 318] | 3600 nM | 181 nM | 931 nM | 149 nM |  |  |  |
| Nc1ncccc1-c1nc2ccc(-n3cccn3)nc2n1-c1ccc2c(c1)CC[C@@H]2n1cc(C2CCC2)nn1 [Compound 287] | 3000 nM | 259 nM | 636 nM | 16.9 nM |  |  |  |
| Nc1ncccc1-c1nc2ccc(-n3cccn3)nc2n1-c1ccc2c(c1)CC[C@@H]2NC(=O)c1cncc(F)c1 [Compound 32, (S)—N-(5-(2-(2-aminopyridin-3-yl)-5-(1H-pyrazol-1-yl)-3H-imidazo[4,5-b]pyridin-3-yl)-2,3-dihydro-1H-inden-1-yl)-5-fluoronicotinamide] | 914 nM | 49 nM | 123 nM | 11 nM |  |  |  |
| Nc1ncccc1-c1nc2ccc(-n3cccn3)nc2n1-c1ccc2c(c1)CC[C@@H]2NC(=O)c1cncs1 [Compound 14, (S)—N-(5-(2-(2-aminopyridin-3-yl)-5-(1H-pyrazol-1-yl)-3H-imidazo[4,5-b]pyridin-3-yl)-2,3-dihydro-1H-inden-1-yl)thiazole-5-carboxamide] | 1290 nM | 22.9 nM | 264 nM | 14.5 nM |  |  |  |
| COc1nccc(C(=O)N[C@H]2CCc3cc(-n4c(-c5cccnc5N)nc5ccc(-n6cccn6)nc54)ccc32)c1C [Compound 284] | 1070 nM | 143 nM | 10.5 nM | 5.1 nM |  |  |  |
| N#Cc1nccc(C(=O)N2CCC(N[C@H]3CCc4cc(-n5c(-c6cccnc6N)nc6ccc(-n7cccn7)nc65)ccc43)CC2)n1 [Compound 580] |  |  |  |  | 11.4 nM | 24.4 nM | 11.2 nM |
| Nc1ncccc1-c1nc2ccc(-n3cccn3)nc2n1-c1ccc2c(c1)CC[C@@H]2NC(=O)c1ccc(Cl)nc1 [Compound 45, (S)—N-(5-(2-(2-aminopyridin-3-yl)-5-(1H-pyrazol-1-yl)-3H-imidazo[4,5-b]pyridin-3-yl)-2,3-dihydro-1H-inden-1-yl)-6-chloronicotinamide] | 1340 nM | 170 nM | 139 nM | 17.4 nM |  |  |  |
| Nc1ncccc1-c1nc2ccc(-n3nccn3)nc2n1-c1ccc2c(c1)CC[C@@H]2NC1CCN(c2ccccn2)CC1 [Compound 366] | > 10000 nM | 818 nM | 4380 nM | 70.9 nM |  |  |  |
| Nc1ncccc1-c1nc2ccc(-n3cccn3)nc2n1-c1ccc2c(c1)CC[C@@H]2NC(=O)c1ccc(C(F)F)cc1 [Compound 61, (S)—N-(5-(2-(2-aminopyridin-3-yl)-5-(1H-pyrazol-1-yl)-3H-imidazo[4,5-b]pyridin-3-yl)-2,3-dihydro-1H-inden-1-yl)-4-(difluoromethyl)benzamide] | 921 nM | 72.6 nM | 49.7 nM | 4.75 nM |  |  |  |
| N#Cc1nc(N2CCC(N[C@H]3CCc4cc(-n5c(-c6cccnc6N)nc6ccc(-n7cccn7)nc65)ccc43)CC2)cs1 [Compound 593] |  |  |  |  | 22 nM | 23.7 nM | 4.56 nM |
| N#Cc1nccc(N2CC(N[C@H]3CCc4cc(-n5c(-c6cccnc6N)nc6ccc(-n7cccn7)nc65)ccc43)C2)n1 [Compound 581] |  |  |  |  | 20.8 nM | 38.4 nM | 6.51 nM |
| N#Cc1nccc(N2CCC(N[C@@H]3c4ccc(-n5c(-c6cccnc6N)nc6ccc(-n7cccn7)nc65)cc4CC3F)CC2)n1 (stereo partly drawn) [Compound 579] |  |  |  |  | 9.88 nM | 26.6 nM | 5.42 nM |
| Cc1cc(N2CCC(N[C@H]3CCc4cc(-n5c(-c6cccnc6N)nc6ccc(-n7cccn7)nc65)ccc43)CC2)nc(C#N)n1 [Cpd 584, (S)-4-(4-((5-(2-(2-aminopyridin-3-yl)-5-(1H-pyrazol-1-yl)-3H-imidazo[4,5-b]pyridin-3-yl)-2,3-dihydro-1H-inden-1-yl)amino)piperidin-1-yl)-6-methylpyrimidine-2-carbonitrile] |  |  |  |  | 11.8 nM | 62.5 nM | 6.1 nM |
| COc1cnc(C#N)nc1N1CCC(N[C@H]2CCc3cc(-n4c(-c5cccnc5N)nc5ccc(-n6cccn6)nc54)ccc32)CC1 [Cpd 586] |  |  |  |  | 17.3 nM | 43 nM | 6.98 nM |
| Cc1cnc(C#N)nc1N1CCC(N[C@H]2CCc3cc(-n4c(-c5cccnc5N)nc5ccc(-n6cccn6)nc54)ccc32)CC1 [Compound 585] |  |  |  |  | 8.23 nM | 10.7 nM | 4.77 nM |
| COc1cc(-c2ccc3nc(-c4cccnc4N)n(-c4ccc5c(c4)CC(F)[C@@H]5NC4CCN(C(=O)C5CC5)CC4)c3n2)ccn1 (stereo partly drawn) [Compound 543] |  |  |  |  | 526 nM | 1210 nM | 81 nM |
| CC(=O)N[C@H]1CCc2cc(-n3c(-c4cccnc4N)nc4ccc(-n5cccn5)nc43)ccc21 [Compound 1, (S)—N-(5-(2-(2-aminopyridin-3-yl)-5-(1H-pyrazol-1-yl)-3H-imidazo[4,5-b]pyridin-3-yl)-2,3-dihydro-1H-inden-1-yl)acetamide] |  | > 1000 nM | 4310 nM | > 737 nM |  |  |  |
| N#Cc1nc2c(c(N3CCC(N[C@H]4CCc5cc(-n6c(-c7cccnc7N)nc7ccc(-n8cccn8)nc76)ccc54)CC3)n1)CCC2 [Compound 603] |  |  |  |  | 16.5 nM | 76.8 nM | 7.65 nM |
| C#CC1(OCC(=O)N[C@H]2CCc3cc(-n4c(-c5cccnc5N)nc5ccc(-n6cccn6)nc54)ccc32)COC1 [Compound 9, N—{(S)-5-[2-(2-amino-3-pyridyl)-5-(1-pyrazolyl)-3H-1,3,4-triazainden-3-yl]-1-indanyl}(3-ethynyl-3-oxetanyloxy)acetamide] |  | > 1000 nM | 8890 nM | > 1000 nM |  |  |  |
| N#Cc1ncnc(N2CCC(N[C@H]3CCc4cc(-n5c(-c6cccnc6N)nc6ccc(-n7cccn7)nc65)ccc43)CC2)n1 [Compound 592] |  |  |  |  | 5.5 nM | 11 nM | 4.32 nM |
